# Laboratory results published in publication PMC5218480 (PLoS ONE, 2017).
# Tested on: MV-4-11 cells
# Test: Gene expression microarray analysis (Affymetrix PrimeView) and GSEA
# Assay type: cell-based, human
# Parameters: RFU PODN (11730768_x_at) / Fold change /veh PODN (11730768_x_at) / RFU LINC00158 (11744669_a_at) / Fold change /veh LINC00158 (11744669_a_at) / RFU DUSP10 (11751237_a_at) / Fold change /veh DUSP10 (11751237_a_at) / RFU ID3 (11757404_x_at) / Fold change /veh ID3 (11757404_x_at) / RFU PLEKHG5 (11737974_s_at) / Fold change /veh PLEKHG5 (11737974_s_at) / RFU LRRC4B (11730491_at) / Fold change /veh LRRC4B (11730491_at) / RFU GIMAP4 (11747438_a_at) / Fold change /veh GIMAP4 (11747438_a_at) / RFU KRT8 (11758183_x_at) / Fold change /veh KRT8 (11758183_x_at) / RFU CNN1 (11734310_a_at) / Fold change /veh CNN1 (11734310_a_at) / RFU VPS37D (11726825_at) / Fold change /veh VPS37D (11726825_at) / RFU C10orf10 (11716522_x_at) / Fold change /veh C10orf10 (11716522_x_at) / RFU KIR2DL2 /// KIR2DL4 /// KIR2DL5A /// KIR2DL5B /// KIR2DS1 /// KIR2DS2 /// KIR2DS3 /// KIR2DS4 /// KIR3DL3 /// KIR3DL3 /// KIR3DS1 (11738374_at) / Fold change /veh KIR2DL2 /// KIR2DL4 /// KIR2DL5A /// KIR2DL5B /// KIR2DS1 /// KIR2DS2 /// KIR2DS3 /// KIR2DS4 /// KIR3DL3 /// KIR3DL3 /// KIR3DS1 (11738374_at) / RFU C1QL1 (11718748_at) / Fold change /veh C1QL1 (11718748_at) / RFU TMPRSS4 (11747572_a_at) / Fold change /veh TMPRSS4 (11747572_a_at) / RFU HAMP (11756126_x_at) / Fold change /veh HAMP (11756126_x_at) / RFU RNFT2 (11725882_a_at) / Fold change /veh RNFT2 (11725882_a_at) / RFU NR4A2 (11747474_a_at) / Fold change /veh NR4A2 (11747474_a_at) / RFU ABCC12 (11746883_a_at) / Fold change /veh ABCC12 (11746883_a_at) / RFU TMEM136 (11760407_x_at) / Fold change /veh TMEM136 (11760407_x_at) / RFU CLDN22 /// WWC2 (11732394_at) / Fold change /veh CLDN22 /// WWC2 (11732394_at) / RFU HLA-DPB1 (11760878_x_at) / Fold change /veh HLA-DPB1 (11760878_x_at) / RFU SPINT1 (11716480_a_at) / Fold change /veh SPINT1 (11716480_a_at) / RFU GAP43 (11754022_s_at) / Fold change /veh GAP43 (11754022_s_at) / RFU A4GNT (11735810_at) / Fold change /veh A4GNT (11735810_at) / RFU PRB3 (11715151_x_at) / Fold change /veh PRB3 (11715151_x_at) / RFU TUBB4B (11761932_at) / Fold change /veh TUBB4B (11761932_at) / RFU CAPN14 (11732068_a_at) / Fold change /veh CAPN14 (11732068_a_at) / RFU TMCC2 (11721928_a_at) / Fold change /veh TMCC2 (11721928_a_at) / RFU IRGQ (11745062_a_at) / Fold change /veh IRGQ (11745062_a_at) / RFU FAM174B (11720279_a_at) / Fold change /veh FAM174B (11720279_a_at) / RFU TMPRSS4 (11748680_a_at) / Fold change /veh TMPRSS4 (11748680_a_at) / RFU FAM212B (11763350_a_at) / Fold change /veh FAM212B (11763350_a_at) / RFU PLEKHG5 (11743358_a_at) / Fold change /veh PLEKHG5 (11743358_a_at) / RFU ZSCAN30 (11745921_a_at) / Fold change /veh ZSCAN30 (11745921_a_at) / RFU CMKLR1 (11741424_a_at) / Fold change /veh CMKLR1 (11741424_a_at) / RFU LOC101060620 /// MAPK8IP1 (11723275_at) / Fold change /veh LOC101060620 /// MAPK8IP1 (11723275_at) / RFU SPTSSB (11747773_x_at) / Fold change /veh SPTSSB (11747773_x_at) / RFU PRSS12 (11739890_at) / Fold change /veh PRSS12 (11739890_at) / RFU BIN1 (11741810_x_at) / Fold change /veh BIN1 (11741810_x_at) / RFU WNT11 (11732464_a_at) / Fold change /veh WNT11 (11732464_a_at) / RFU C10orf10 (11716521_a_at) / Fold change /veh C10orf10 (11716521_a_at) / RFU C5orf56 (11738089_at) / Fold change /veh C5orf56 (11738089_at) / RFU CYB561 (11721691_x_at) / Fold change /veh CYB561 (11721691_x_at) / RFU ANKRD19P (11752326_a_at) / Fold change /veh ANKRD19P (11752326_a_at) / RFU OR2T12 /// OR2T33 /// OR2T8 (11738714_s_at) / Fold change /veh OR2T12 /// OR2T33 /// OR2T8 (11738714_s_at) / RFU VCAN (11748164_a_at) / Fold change /veh VCAN (11748164_a_at) / RFU JSRP1 (11732532_at) / Fold change /veh JSRP1 (11732532_at) / RFU KRTAP10-11 (11738290_x_at) / Fold change /veh KRTAP10-11 (11738290_x_at) / RFU MYO3A (11730013_a_at) / Fold change /veh MYO3A (11730013_a_at) / RFU EBF3 (11725865_a_at) / Fold change /veh EBF3 (11725865_a_at) / RFU CAMK2N1 (11719241_x_at) / Fold change /veh CAMK2N1 (11719241_x_at) / RFU C5orf56 (11738088_a_at) / Fold change /veh C5orf56 (11738088_a_at) / RFU OLFML3 (11715873_a_at) / Fold change /veh OLFML3 (11715873_a_at) / RFU LOC100653217 /// NTM (11731650_a_at) / Fold change /veh LOC100653217 /// NTM (11731650_a_at) / RFU MAPK11 (11762145_a_at) / Fold change /veh MAPK11 (11762145_a_at) / RFU FIZ1 (11724087_x_at) / Fold change /veh FIZ1 (11724087_x_at) / RFU OASL (11726364_x_at) / Fold change /veh OASL (11726364_x_at) / RFU SOX15 (11748057_x_at) / Fold change /veh SOX15 (11748057_x_at) / RFU CD79A (11719716_a_at) / Fold change /veh CD79A (11719716_a_at) / RFU HIST1H1D (11736915_at) / Fold change /veh HIST1H1D (11736915_at) / RFU CASKIN2 (11723855_a_at) / Fold change /veh CASKIN2 (11723855_a_at) / RFU LOC730098 (11760151_x_at) / Fold change /veh LOC730098 (11760151_x_at) / RFU OR4N2 (11742367_at) / Fold change /veh OR4N2 (11742367_at) / RFU PRRT2 (11749266_a_at) / Fold change /veh PRRT2 (11749266_a_at) / RFU SNX32 (11753110_a_at) / Fold change /veh SNX32 (11753110_a_at) / RFU CDHR5 (11726645_a_at) / Fold change /veh CDHR5 (11726645_a_at) / RFU RCAN1 (11760418_a_at) / Fold change /veh RCAN1 (11760418_a_at) / RFU FAM167A (11723789_a_at) / Fold change /veh FAM167A (11723789_a_at) / RFU FAM26E (11764081_at) / Fold change /veh FAM26E (11764081_at) / RFU ISYNA1 (11749810_s_at) / Fold change /veh ISYNA1 (11749810_s_at) / RFU ACY1 (11761880_at) / Fold change /veh ACY1 (11761880_at) / RFU 11764098_at / Fold change /veh 11764098_at / RFU SAMD14 (11745864_x_at) / Fold change /veh SAMD14 (11745864_x_at) / RFU NPB (11741838_a_at) / Fold change /veh NPB (11741838_a_at) / RFU TMPRSS6 (11731388_a_at) / Fold change /veh TMPRSS6 (11731388_a_at) / RFU KRTAP10-2 (11738614_at) / Fold change /veh KRTAP10-2 (11738614_at) / RFU ARHGAP8 /// PRR5-ARHGAP8 (11727945_x_at) / Fold change /veh ARHGAP8 /// PRR5-ARHGAP8 (11727945_x_at) / RFU KRTAP5-7 /// NADSYN1 (11734609_at) / Fold change /veh KRTAP5-7 /// NADSYN1 (11734609_at) / RFU RASL12 (11751679_a_at) / Fold change /veh RASL12 (11751679_a_at) / RFU CDKN2B (11736163_a_at) / Fold change /veh CDKN2B (11736163_a_at) / RFU PRF1 (11729649_at) / Fold change /veh PRF1 (11729649_at) / RFU, ZNF638 /// ZNF638-IT1 / Fold change vs veh, ZNF638 /// ZNF638-IT1 / RFU, PANK3 / Fold change vs veh, PANK3 / RFU, SH3YL1 / Fold change vs veh, SH3YL1 / RFU, ZEB2 / Fold change vs veh, ZEB2 / RFU, NRIP1 / Fold change vs veh, NRIP1 / RFU, PTTG1IP / Fold change vs veh, PTTG1IP / RFU, CAPN2 / Fold change vs veh, CAPN2 / RFU, MED14 / Fold change vs veh, MED14 / RFU, SNORA58 / Fold change vs veh, SNORA58 / RFU, C1orf63 / Fold change vs veh, C1orf63 / RFU, LRRFIP1 / Fold change vs veh, LRRFIP1 / RFU, NDUFAF7 / Fold change vs veh, NDUFAF7 / RFU, SLC12A2 / Fold change vs veh, SLC12A2 / RFU, IBTK / Fold change vs veh, IBTK / RFU, ESF1 / Fold change vs veh, ESF1 / Fold change vs veh, TMEM50B / RFU, TAOK1 / Fold change vs veh, TAOK1 / RFU, ACBD3 / Fold change vs veh, ACBD3 / RFU, TMA16 / Fold change vs veh, TMA16 / RFU, RWDD3 / Fold change vs veh, RWDD3 / RFU, BCAT1 / Fold change vs veh, BCAT1 / RFU, EDEM3 / Fold change vs veh, EDEM3 / RFU, TMEM33 / Fold change vs veh, TMEM33 / RFU, WDR75 / Fold change vs veh, WDR75 / RFU, AHCTF1 / Fold change vs veh, AHCTF1 / RFU, TFRC / Fold change vs veh, TFRC / RFU, ZDHHC17 / Fold change vs veh, ZDHHC17 / RFU, NOM1 / Fold change vs veh, NOM1 / RFU, ARL8B / Fold change vs veh, ARL8B / RFU, ZBTB11 / Fold change vs veh, ZBTB11 / RFU, TAMM41 / Fold change vs veh, TAMM41 / RFU, KIAA1704 /// LOC100996395 / Fold change vs veh, KIAA1704 /// LOC100996395 / RFU, ING1 / Fold change vs veh, ING1 / RFU, TRMT61B / Fold change vs veh, TRMT61B / RFU, FUBP3 / Fold change vs veh, FUBP3 / RFU, TP53 / Fold change vs veh, TP53 / RFU, TNKS2 / Fold change vs veh, TNKS2 / RFU, ZFP14 / Fold change vs veh, ZFP14 / RFU, ACTR2 / Fold change vs veh, ACTR2 / RFU, PPP3R1 / Fold change vs veh, PPP3R1 / RFU, PIK3R1 / Fold change vs veh, PIK3R1 / RFU, HNRNPA1 / Fold change vs veh, HNRNPA1 / RFU, RNF170 / Fold change vs veh, RNF170 / RFU, ZNF28 / Fold change vs veh, ZNF28 / RFU, RNGTT / Fold change vs veh, RNGTT / RFU, OGT / Fold change vs veh, OGT / RFU, BRD1 / Fold change vs veh, BRD1 / RFU, MARS / Fold change vs veh, MARS / RFU, ZNF655 / Fold change vs veh, ZNF655 / RFU, FAHD1 / Fold change vs veh, FAHD1 / RFU, BDP1 / Fold change vs veh, BDP1 / RFU, LRRCC1 / Fold change vs veh, LRRCC1 / RFU, ARID1A / Fold change vs veh, ARID1A / RFU, ZNF146 / Fold change vs veh, ZNF146 / RFU, ZNF330 / Fold change vs veh, ZNF330 / RFU, GPN3 / Fold change vs veh, GPN3 / RFU, C9orf123 / Fold change vs veh, C9orf123 / RFU, N4BP2L2 / Fold change vs veh, N4BP2L2 / RFU, ARFIP1 / Fold change vs veh, ARFIP1 / RFU, FAM179B / Fold change vs veh, FAM179B / RFU, BCL10 / Fold change vs veh, BCL10 / RFU, UHRF1BP1L / Fold change vs veh, UHRF1BP1L / RFU, BET1 / Fold change vs veh, BET1 / RFU, CNOT2 / Fold change vs veh, CNOT2 / RFU, ZNF268 / Fold change vs veh, ZNF268 / Fold change vs veh, ZNF507 / RFU, DGCR2 / Fold change vs veh, DGCR2 / RFU, WDSUB1 / Fold change vs veh, WDSUB1 / Fold change vs veh, HSP90B1 /// MIR3652 / RFU, ADSS / Fold change vs veh, ADSS / RFU, GK / Fold change vs veh, GK / RFU, ZNF148 / Fold change vs veh, ZNF148 / RFU, TAF9 / Fold change vs veh, TAF9 / RFU, SLC1A5 / Fold change vs veh, SLC1A5 / RFU, SLMO2 / Fold change vs veh, SLMO2 / RFU, ABCC4 / Fold change vs veh, ABCC4 / RFU, LOC101060439 /// RAP1B / Fold change vs veh, LOC101060439 /// RAP1B / RFU, RFX7 / Fold change vs veh, RFX7 / RFU, GTPBP10 / Fold change vs veh, GTPBP10 / RFU, CNEP1R1 / Fold change vs veh, CNEP1R1 / RFU, BIVM-ERCC5 /// ERCC5 / Fold change vs veh, BIVM-ERCC5 /// ERCC5 / RFU, ILF3 / Fold change vs veh, ILF3 / RFU 11762660_at / Fold change /veh 11762660_at / RFU VCAN (11757783_s_at) / Fold change /veh VCAN (11757783_s_at) / RFU DDX43 (11728927_at) / Fold change /veh DDX43 (11728927_at) / RFU KRT8 (11758188_x_at) / Fold change /veh KRT8 (11758188_x_at) / RFU NKD1 (11759106_at) / Fold change /veh NKD1 (11759106_at) / RFU SRD5A1 (11742802_a_at) / Fold change /veh SRD5A1 (11742802_a_at) / RFU TPSAB1 /// TPSB2 (11721975_s_at) / Fold change /veh TPSAB1 /// TPSB2 (11721975_s_at) / RFU GSTM3 (11746129_a_at) / Fold change /veh GSTM3 (11746129_a_at) / RFU IL23R (11737362_x_at) / Fold change /veh IL23R (11737362_x_at) / RFU TMEM51 (11727254_a_at) / Fold change /veh TMEM51 (11727254_a_at) / RFU PIWIL2 (11732686_x_at) / Fold change /veh PIWIL2 (11732686_x_at) / RFU ORM1 (11744905_x_at) / Fold change /veh ORM1 (11744905_x_at) / RFU CCDC152 (11743942_at) / Fold change /veh CCDC152 (11743942_at) / RFU ECM1 (11717891_a_at) / Fold change /veh ECM1 (11717891_a_at) / RFU IL23R (11748794_a_at) / Fold change /veh IL23R (11748794_a_at) / RFU TNFAIP8L3 (11732012_x_at) / Fold change /veh TNFAIP8L3 (11732012_x_at) / RFU MBOAT4 (11741988_at) / Fold change /veh MBOAT4 (11741988_at) / RFU 11764193_at / Fold change /veh 11764193_at / RFU TMEM53 (11763286_at) / Fold change /veh TMEM53 (11763286_at) / RFU MAGEB2 (11727129_at) / Fold change /veh MAGEB2 (11727129_at) / RFU TMEM200A (11744735_a_at) / Fold change /veh TMEM200A (11744735_a_at) / RFU CCDC152 (11751479_a_at) / Fold change /veh CCDC152 (11751479_a_at) / RFU FAM211A (11726209_a_at) / Fold change /veh FAM211A (11726209_a_at) / RFU RGS16 (11746705_a_at) / Fold change /veh RGS16 (11746705_a_at) / RFU VCAN (11755009_s_at) / Fold change /veh VCAN (11755009_s_at) / RFU RHOB (11743442_s_at) / Fold change /veh RHOB (11743442_s_at) / RFU RGS16 (11720943_a_at) / Fold change /veh RGS16 (11720943_a_at) / RFU RGS16 (11720944_at) / Fold change /veh RGS16 (11720944_at) / RFU, VPS4B / Fold change vs veh, VPS4B / RFU, CREB1 / Fold change vs veh, CREB1 / RFU, DNAJC13 / Fold change vs veh, DNAJC13 / RFU, GNAQ / Fold change vs veh, GNAQ / RFU, CDK5R1 / Fold change vs veh, CDK5R1 / RFU, ZRANB3 / Fold change vs veh, ZRANB3 / RFU, CUL4A / Fold change vs veh, CUL4A / RFU, CCNY / Fold change vs veh, CCNY / RFU, UFL1 / Fold change vs veh, UFL1 / RFU, COG3 / Fold change vs veh, COG3 / RFU, DIAPH2 / Fold change vs veh, DIAPH2 / RFU, SKA2 / Fold change vs veh, SKA2 / RFU, AFF3 / Fold change vs veh, AFF3 / RFU, LMF1 / Fold change vs veh, LMF1 / RFU, IPO11 / Fold change vs veh, IPO11 / RFU, DFFB / Fold change vs veh, DFFB / RFU, FOXP1 / Fold change vs veh, FOXP1 / RFU, CARD8 / Fold change vs veh, CARD8 / RFU, STRN3 / Fold change vs veh, STRN3 / RFU, ADK / Fold change vs veh, ADK / RFU, RASSF2 / Fold change vs veh, RASSF2 / RFU, WIPF1 / Fold change vs veh, WIPF1 / RFU, LARP1B / Fold change vs veh, LARP1B / RFU, RASA1 / Fold change vs veh, RASA1 / RFU, RB1 / Fold change vs veh, RB1 / RFU, PPFIA1 / Fold change vs veh, PPFIA1 / RFU, MAT2A / Fold change vs veh, MAT2A / RFU, CCT5 / Fold change vs veh, CCT5 / RFU, WDR92 / Fold change vs veh, WDR92 / RFU, CUX1 / Fold change vs veh, CUX1 / RFU, TTC7A / Fold change vs veh, TTC7A / RFU, TMEM135 / Fold change vs veh, TMEM135 / RFU, DEPTOR / Fold change vs veh, DEPTOR / RFU, CPM / Fold change vs veh, CPM / RFU, DNAJB6 / Fold change vs veh, DNAJB6 / RFU, CACNA2D3 / Fold change vs veh, CACNA2D3 / RFU, DTX4 / Fold change vs veh, DTX4 / RFU, TFCP2 / Fold change vs veh, TFCP2 / RFU, GMCL1 /// GMCL1P1 / Fold change vs veh, GMCL1 /// GMCL1P1 / RFU, AEBP2 / Fold change vs veh, AEBP2 / RFU, SNHG1 /// SNORD22 /// SNORD25 /// SNORD26 /// SNORD27 /// SNORD28 /// SNORD29 /// SNORD31 / Fold change vs veh, SNHG1 /// SNORD22 /// SNORD25 /// SNORD26 /// SNORD27 /// SNORD28 /// SNORD29 /// SNORD31 / Fold change (Aza/veh), C12orf56 (ProbeSet 11735607_a_at) / Fold change (ACY-1035/veh), C12orf56 (ProbeSet 11735607_a_at) / Fold change (Aza/veh), FGFR1OP (ProbeSet 11751329_s_at) / Fold change (ACY-1035/veh), FGFR1OP (ProbeSet 11751329_s_at) / Fold change (Aza/veh), VPS36 (ProbeSet 11739960_a_at) / Fold change (ACY-1035/veh), VPS36 (ProbeSet 11739960_a_at) / RFU SYPL1 (11715823_x_at) / Fold change /veh SYPL1 (11715823_x_at) / RFU IGFBP7 (11715501_s_at) / Fold change /veh IGFBP7 (11715501_s_at) / RFU REEP3 (11722064_at) / Fold change /veh REEP3 (11722064_at) / RFU IGLL1 (11728026_x_at) / Fold change /veh IGLL1 (11728026_x_at): dose or concentration left out as unconfirmed
# Conditions: MV-4-11 cells, 48 hours
compound,measurement,value
Nc1ccc(-c2cccs2)cc1NC(=O)c1ccc2c(c1)cc(C1CC1)n2CCN1CCOCC1 [ACY-1035],Fold change /veh JSRP1 (11732532_at),0.91
